In publication PMC6273304, “Efficient Double Suzuki Cross-Coupling Reactions of 2,5-Dibromo-3-hexylthiophene: Anti-Tumor, Haemolytic, Anti-Thrombolytic and Biofilm Inhibition Studies” (Molecules, 2016):
“And” between values parts separate entries of the source, which are not always exact repeats. Equal entries are not always repeated.

How the values were obtained:
4T1 cells = experiment: MTT assay, anti-tumor activity against 4T1 cells; assay type: cell-based; conditions: 72 h treatment
Description: (§1) Metastasis is the major reason of morbidity and mortality in cancer disease. In breast cancer patients, several tissues involving liver, lung, bone, and lymph node are affected by tumor involvement. The anti-tumor activities of all newly-synthesized thiophene derivatives were screened for human breast cancer cell lines 4T1, MDA-MB-231, and MCF-7 using MTT (3-(4,5-dimethylthiazol-2-yl)-2,5-diphenyltetrazolium bromide) assay in vitro. Cisplatin was used as a standard anti-tumor drug in this assay. […] The highest activity of 3h might have been due to the presence of electron-donating methylthio group (-SMe) on aromatic phenyl ring.
(§2) In brief, 0.8 × 10^5 cells/mL were seeded in 96-well plates and were incubated in a humidified CO2 incubator overnight. The following day, serial dilution of the samples was performed with various concentration. The plates were left to incubate with the treatment for 72 h. After the designated time, 20 μL of MTT (5 mg/mL) was inserted into each of the wells and the cells were further incubated for an additional 4 h. Later, the media and the treatment were removed from all of the wells and 100 μL of DMSO was added. The absorbance plates were then read using a spectrophotometer (BioTek) at 570 nm.

MCF-7 cells = experiment: MTT assay, anti-tumor activity against MCF-7 cells; assay type: cell-based, human
Description: as §1
The anti-tumor activity of these compounds was also studied for MCF-7 breast cancer cell line.
as §2

MDA-MB-231 cells = experiment: MTT assay, anti-tumor activity against MDA-MB-231 cells; assay type: cell-based, human; conditions: 72 h treatment
Description: as §1
The anti-tumor activity of all newly-synthesized compounds was also examined against MDA-MB-231 breast cancer cells. […] It is likely possible that the electron-withdrawing iodo groups (-I) attached with phenyl ring might have been affecting the cytotoxicity of MDA-MB-231 cells.
as §2

human blood clots = experiment: Anti-thrombolytic activity (in vitro clot lysis); conditions: 100 μL sample, 90 min at 37 °C
Description: Cerebral Venous Sinus Thrombosis (CVST) is a central nervous disorder, which is a common disease caused by thrombophilia and […]. This fatal disease has been treated by the application of intravenous heparin and warfarin drugs. Now a days, this disease is usually cured by thrombolytic drugs, such as urokinase and streptokinase, which are playing a significant effect in the cure of CVST [25]. In the present study, we have explored the potential of our newly synthesized thiophene derivatives for anti-thrombolytic activity by the procedure reported elsewhere. […] This highest value of % lysis achieved by 3g can be attributed to the electron-withdrawing fluorine and chlorine groups on the aromatic ring.
The anti-thrombolytic activity of all newly-synthesized thiophene derivatives was investigated by following the previously-reported method. In a typical procedure, the sterile eppendorfs were filled with fresh venous blood taken from the human volunteers. The eppendorf tubes, which contained human blood (500 μL), were placed for 45 min at 37 °C to allow for clot formation. Once the clots were formed, the known volumes (100 μL) of sample solutions (3a–i) were added in eppendorfs having no serum in the blood samples. Basically, the serum was removed from blood prior to the clot formation stage. After the addition of samples, the tubes were incubated again for 90 min at 37 °C. For each experiment, the compound Streptokinase was used as a positive control, while water was used as a negative control. The anti-thrombolytic activity of newly-synthesized products was determined at percentage.

Escherichia coli = experiment: Biofilm inhibition assay; assay type: cell-based; conditions: E. coli, 50 μM/mL, 24 h at 37 °C
Procedure: Pathogenic micro-organisms form a biofilm, which mainly causes morbidness and mortality. This biofilm consists of conglomerations of bacterial cells and secured by a polymeric substance created by itself. Several fatal infections are caused by biofilms and they are difficult to remove. The inhibition activities of all newly-synthesized thiophene derivatives (3a–i) against biofilm formation were assayed using the previously-reported method. The experimentally-determined biofilm inhibition values for all compounds are expressed in Table 3. A selected strain of Gram-negative bacteria (Escherichia coli) was used to determine the anti-bacterial activity of all new derivatives at concentration of 50 μM/mL. […] A likely possible cause of this high activity can be attributed to the electron-withdrawing substituents attached with the aromatic phenyl ring of 3d, which might have been playing a significant role for increasing the anti-bacterial activity of this compound against Gram-negative bacteria. We believe that our newly-developed thiophene-based compounds with high % inhibition values can be potentially used to control the formation of biofilms.
The newly-synthesized thiophene derivatives were assayed for their biofilm inhibition activity using the previously reported method. For these measurements, the solutions of the thiophene derivatives were prepared in ethyl acetate. In brief, about 100 μL of sample solutions (3a–i) and 100 μL nutrient broth (Oxoid, Hampshire, UK) along with bacterial suspension (20 μL) were placed on the wells of 96-well sterile culture plates. Rifampicin was used as a positive control, while nutrient broth was used as a negative control for these biofilm inhibition activity measurements. The plates were covered and incubated for 24 h at 37 °C. Each plate was washed three times by using 220 μL of phosphate-buffered solution. After washing, each plate was shaken strongly in order to remove the non-adherent bacteria. 220 μL of 99% methanol solution was used to fix the remaining bacteria from these plates, followed by the drying in hot oven. After drying, the plates were stained with […] of crystal violet with a concentration of […] for five minutes. The excess stain from these plates was removed simply by using tap water. About 220 µL glacial acetic acid (33% concentration) was used to remove the dye attached with the cells. Each well was examined for OD value with the help of the micro-plate reader (BioTek, Winooski, VT, USA) at 630 nm.

red blood cells (RBCs) = experiment: Haemolytic activity; assay type: cell-based; conditions: 30 min, pH 7.4
Description: The newly-synthesized molecules (3a–i) were also examined for their hemolytic activity, following the method reported by Powell and co-workers. The standard drug Triton X-100 was employed as a reference in these measurements. […] Ding et al. reported that chloro group-containing molecules display facile haemolytic activity as compared with those compounds having a methyl group substitution on the ring.
The hemolytic activity of newly synthesized thiophene derivatives was examined by following the previously-reported method. For these measurements, the solutions of the thiophene derivatives were prepared in ethyl acetate. In brief, about 3 mL of newly-obtained heparinized blood was taken in 15 mL sterile Falcon tube, which was later centrifuged for 5 min at 850 rpm. The supernatant was removed and washed three times and was later placed at room temperature for 30 min. In order to wash the thick pellet, 5 mL of ice-cold (4 °C) phosphate-buffered saline (PBS) having pH 7.4 was employed. The same PBS buffer (20 mL) was used to maintain the cells over longer periods of time. The erythrocytes present in cells were measured and diluted with PBS buffer. Approximately 180 µL of this suspension of erythrocytes was taken along with 20 µL of sample solution (3a–i) in eppendorfs. These eppendorfs were incubated thermally at human body temperature for 30 min, followed by centrifuging at 1310 rpm again for 5 min. After significant centrifugation, the supernatant was removed and diluted with phosphate-buffered saline (900 µL) and was later placed on ice. Each sample solution (200 µL) was kept in 96-well culture plates. For each measurement, phosphate-buffered saline and 0.1% Triton X-100 were employed as negative and positive control, respectively. A quant instrument was used to observe the absorbance of all sample solutions at 576 nm.

[1] = Homo sapiens, MCF7, 72 h treatment

With `N.N.[Cl][Pt][Cl]` [Cisplatin, reference compound] the IC50 (4T1 cells) was 21.5 µM, the IC50 (MCF-7 cells; 72 h treatment) was 48 µM and 48.3 µM and the IC50 (MDA-MB-231 cells) was 29 µM and 29.1 µM.

In the case of `CCCCCCc1cc(-c2ccc(C)cc2)sc1-c1ccc(C)cc1` [Compound 3a, 2,5-Bis(4-methylphenyl)-3-hexylthiophene], the “% Lysis (clot lysis, anti-thrombolytic activity)” value (human blood clots) is reported as 16.25 ± 0.028%, the IC50 (4T1 cells; 4T1, 72 h) is reported as 30.5 ± 0.08 µM and the IC50 (MCF-7 cells; [1]) is reported as 26.2 ± 0.7 µM. For the same molecule, the IC50 (MDA-MB-231 cells; Homo sapiens) was 36.8 ± 0.21 µM and the inhibition at 50 µM (Escherichia coli) was 62.5 ± 0.038%.

For `CCCCCCc1cc(-c2cc(C)cc(C)c2)sc1-c1cc(C)cc(C)c1` [Compound 3b, 2,5-Bis(3,5-dimethylphenyl)-3-hexylthiophene], the “% Lysis of RBC” value (red blood cells (RBCs)) was 4.54 ± 0.014%, the “% Lysis (clot lysis, anti-thrombolytic activity)” value (human blood clots) was 25.32 ± 0.092% and the IC50 (4T1 cells; 4T1, 72 h) was 30 ± 0.81 µM. For the same molecule, the IC50 (MCF-7 cells; [1]) was 33.8 ± 0.29 µM, the IC50 (MDA-MB-231 cells; Homo sapiens) was 32.2 ± 2.73 µM and the inhibition at 50 µM (Escherichia coli) was 59.48 ± 0.073%.

For `CCCCCCc1cc(-c2ccc(OC)cc2)sc1-c1ccc(OC)cc1` [Compound 3c, 3-Hexyl-2,5-bis(4-methoxyphenyl)thiophene], the “% Lysis of RBC” value (red blood cells (RBCs)) was 5.80 ± 0.045%, the “% Lysis (clot lysis, anti-thrombolytic activity)” value (human blood clots) was 41.12% and 41.12 ± 0.035% and the IC50 (4T1 cells; 4T1, 72 h) was 29.5 ± 4.3 µM. The IC50 (MCF-7 cells; [1]) was 35.7 ± 0.09 µM, the IC50 (MDA-MB-231 cells; Homo sapiens) was 40 ± 0.41 µM and the inhibition at 50 µM (Escherichia coli) was 73.27 ± 0.023%.

For `CCCCCCc1cc(-c2ccc(Cl)cc2)sc1-c1ccc(Cl)cc1` [Compound 3d, 2,5-Bis(4-chlorophenyl)-3-hexylthiophene], the “% Lysis of RBC” value (red blood cells (RBCs)) was 6.66 ± 0.057%, the “% Lysis (clot lysis, anti-thrombolytic activity)” value (human blood clots) was 2.04 ± 0.091% and the IC50 (4T1 cells; 4T1, 72 h) was 22.8 ± 0.04 µM. For the same molecule, the IC50 (MCF-7 cells; [1]) was 27.5 ± 0.67 µM, the IC50 (MDA-MB-231 cells; Homo sapiens) was 24.8 ± 0.56 µM and the inhibition at 50 µM (Escherichia coli) was 78.85 ± 0.057%.

With `CCCCCCc1cc(-c2ccc(I)cc2)sc1-c1ccc(I)cc1` [Compound 3e, 3-Hexyl-2,5-bis(4-iodophenyl)thiophene] the “% Lysis of RBC” value (red blood cells (RBCs)) was 3.62 ± 0.024%, the “% Lysis (clot lysis, anti-thrombolytic activity)” value (human blood clots) was 32.42 ± 0.046% and the IC50 (4T1 cells; 4T1, 72 h) was 21.5 ± 3.71 µM. It also gave an IC50 (MCF-7 cells; [1]) of 91.4 ± 0.59 µM, an IC50 (MDA-MB-231 cells; Homo sapiens) of 22.9 ± 3.8 µM and an inhibition at 50 µM (Escherichia coli) of 73.8 ± 0.032%.

With `CCCCCCc1cc(-c2cc(F)cc(F)c2)sc1-c1cc(F)cc(F)c1` [Compound 3f, 2,5-Bis(3,5-difluorophenyl)-3-hexylthiophene] the “% Lysis (clot lysis, anti-thrombolytic activity)” value (human blood clots) was 12.34 ± 0.073%, the IC50 (4T1 cells; 4T1, 72 h) was 31.5 ± 1.1 µM and the IC50 (MCF-7 cells; [1]) was 42.8 ± 2.87 µM. For the same molecule, the IC50 (MDA-MB-231 cells; Homo sapiens) was 28.1 ± 0.72 µM and the inhibition at 50 µM (Escherichia coli) was 69.68 ± 0.049%.

For `CCCCCCc1cc(-c2ccc(F)c(Cl)c2)sc1-c1ccc(F)c(Cl)c1` [Compound 3g, 2,5-Bis(3-chloro-4-fluorophenyl)-3-hexylthiophene], the “% Lysis of RBC” value (red blood cells (RBCs)) was 15.57 ± 0.034%, the “% Lysis (clot lysis, anti-thrombolytic activity)” value (human blood clots) was 53.12% and 53.12 ± 0.063% and the IC50 (4T1 cells; 4T1, 72 h) was 22 ± 0.57 µM. For the same molecule, the IC50 (MCF-7 cells; [1]) was 44 ± 0.17 µM, the IC50 (MDA-MB-231 cells; Homo sapiens) was 26.2 ± 0.28 µM and the inhibition at 50 µM (Escherichia coli) was 75.53 ± 0.041%.

In the case of `CCCCCCc1cc(-c2ccc(SC)cc2)sc1-c1ccc(SC)cc1` [Compound 3h, 3-Hexyl-2,5-bis(4-(methylthio)phenyl)thiophene], the “% Lysis (clot lysis, anti-thrombolytic activity)” value (human blood clots) is reported as 0.27 ± 0.021%, the IC50 (4T1 cells; 4T1, 72 h) is reported as 16 µM and the IC50 (4T1 cells) is reported as 16.1 ± 0.09 µM. The IC50 (MCF-7 cells; [1]) was 35.1 ± 3.8 µM, the IC50 (MDA-MB-231 cells; Homo sapiens) was 29.2 ± 0.04 µM and the inhibition at 50 µM (Escherichia coli) was 27.12 ± 0.039%.

With `CCCCCCc1cc(-c2cccc(C(C)=O)c2)sc1-c1cccc(C(C)=O)c1` [Compound 3i, 2,5-Bis(3-acetylphenyl)-3-hexylthiophene] the “% Lysis (clot lysis, anti-thrombolytic activity)” value (human blood clots) was 1.84 ± 0.083%, the IC50 (4T1 cells; 4T1, 72 h) was 23.2 ± 0.08 µM and the IC50 (MCF-7 cells; [1]) was 36.8 ± 0.03 µM. The IC50 (MDA-MB-231 cells; Homo sapiens) was 36.8 ± 0.82 µM and the inhibition at 50 µM (Escherichia coli) was 76.86 ± 0.083%.

Streptokinase [reference compound] was tested, and the “% Lysis (clot lysis, anti-thrombolytic activity)” value (human blood clots) was 100%.
